Experiment: xn = mol fraction of the nth substance listed
Conditions: 101 kPa, Liquid

CC1COC(=O)O1 (configuration not stated) [4-methyl-1,3-dioxolan-2-one] + Cc1ccc(C)cc1
Conditions	mass density [kg/m3]
293.15 K, x2 = 0	1200.25
293.15 K, x2 = 0.0487	1177.59
293.15 K, x2 = 0.1238	1144.26
293.15 K, x2 = 0.1793	1120.81
293.15 K, x2 = 0.2482	1093.01
293.15 K, x2 = 0.3125	1068.33
293.15 K, x2 = 0.381	1043.26
293.15 K, x2 = 0.4371	1023.64
293.15 K, x2 = 0.4972	1003.44
293.15 K, x2 = 0.5622	982.49
293.15 K, x2 = 0.6329	960.71
293.15 K, x2 = 0.6938	942.7
293.15 K, x2 = 0.7421	928.88
293.15 K, x2 = 0.8023	912.2
293.15 K, x2 = 0.8592	896.93
293.15 K, x2 = 0.9247	879.91
303.15 K, x2 = 0	1180.56
303.15 K, x2 = 0.0523	1157.1
303.15 K, x2 = 0.123	1126.84
303.15 K, x2 = 0.1836	1102.14
303.15 K, x2 = 0.2381	1080.85
303.15 K, x2 = 0.3263	1048.15
303.15 K, x2 = 0.3741	1031.29
303.15 K, x2 = 0.4233	1014.5
303.15 K, x2 = 0.4794	996.06
303.15 K, x2 = 0.5573	971.57
303.15 K, x2 = 0.6233	951.77
303.15 K, x2 = 0.6843	934.2
303.15 K, x2 = 0.7538	914.94
303.15 K, x2 = 0.8148	898.66
303.15 K, x2 = 0.8731	883.59
303.15 K, x2 = 0.9362	867.79
313.15 K, x2 = 0	1161.28
313.15 K, x2 = 0.0543	1137.8
313.15 K, x2 = 0.1173	1111.72
313.15 K, x2 = 0.1598	1094.8
313.15 K, x2 = 0.2294	1068.21
313.15 K, x2 = 0.2849	1047.95
313.15 K, x2 = 0.3598	1021.87
313.15 K, x2 = 0.4381	996.03
313.15 K, x2 = 0.482	982.14
313.15 K, x2 = 0.5359	965.64
313.15 K, x2 = 0.6021	946.14
313.15 K, x2 = 0.6721	926.39
313.15 K, x2 = 0.7359	909.11
313.15 K, x2 = 0.8243	886.17
313.15 K, x2 = 0.8817	871.85
313.15 K, x2 = 0.9274	860.74
323.15 K, x2 = 0	1142.43
323.15 K, x2 = 0.0623	1116.49
323.15 K, x2 = 0.1246	1091.71
323.15 K, x2 = 0.1822	1069.79
323.15 K, x2 = 0.2483	1045.74
323.15 K, x2 = 0.3193	1021.16
323.15 K, x2 = 0.3719	1003.72
323.15 K, x2 = 0.4389	982.42
323.15 K, x2 = 0.5032	962.87
323.15 K, x2 = 0.5579	946.88
323.15 K, x2 = 0.6234	928.45
323.15 K, x2 = 0.6972	908.56
323.15 K, x2 = 0.7529	894.11
323.15 K, x2 = 0.8137	878.84
323.15 K, x2 = 0.8724	864.57
323.15 K, x2 = 0.9378	849.15
333.15 K, x2 = 0	1123.99
333.15 K, x2 = 0.0598	1099.91
333.15 K, x2 = 0.1387	1069.71
333.15 K, x2 = 0.1738	1056.82
333.15 K, x2 = 0.2384	1033.93
333.15 K, x2 = 0.3283	1003.8
333.15 K, x2 = 0.3918	983.64
333.15 K, x2 = 0.452	965.32
333.15 K, x2 = 0.5138	947.26
333.15 K, x2 = 0.5821	928.14
333.15 K, x2 = 0.6518	909.44
333.15 K, x2 = 0.7139	893.44
333.15 K, x2 = 0.783	876.29
333.15 K, x2 = 0.8346	863.9
333.15 K, x2 = 0.8814	852.95
333.15 K, x2 = 0.9471	837.99
343.15 K, x2 = 0	1105.98
343.15 K, x2 = 0.0643	1081
343.15 K, x2 = 0.1241	1058.78
343.15 K, x2 = 0.1839	1037.51
343.15 K, x2 = 0.245	1016.69
343.15 K, x2 = 0.3183	992.89
343.15 K, x2 = 0.3891	971.03
343.15 K, x2 = 0.4498	953.11
343.15 K, x2 = 0.5021	938.24
343.15 K, x2 = 0.5721	919.11
343.15 K, x2 = 0.6592	896.46
343.15 K, x2 = 0.7134	882.94
343.15 K, x2 = 0.7635	870.82
343.15 K, x2 = 0.8247	856.45
343.15 K, x2 = 0.8848	842.78
343.15 K, x2 = 0.9522	827.92
353.15 K, x2 = 0	1088.38
353.15 K, x2 = 0.0505	1069.32
353.15 K, x2 = 0.1184	1044.77
353.15 K, x2 = 0.1739	1025.56
353.15 K, x2 = 0.2289	1007.26
353.15 K, x2 = 0.2847	989.41
353.15 K, x2 = 0.3571	967.26
353.15 K, x2 = 0.4248	947.53
353.15 K, x2 = 0.4972	927.39
353.15 K, x2 = 0.5539	912.26
353.15 K, x2 = 0.6198	895.34
353.15 K, x2 = 0.674	881.93
353.15 K, x2 = 0.7354	867.23
353.15 K, x2 = 0.7842	855.91
353.15 K, x2 = 0.8527	840.5
353.15 K, x2 = 0.9247	824.87

From the NIST ThermoML archive (doi:10.1016/j.jct.2005.01.017)
